In patent publication US20150005288A1, “SUBSTITUTED PHENYLIMIDAZOPYRAZOLES AND USE THEREOF” (Bayer Intellectual Property GmbH, priority 2012, published 2015):
Where a name gives a salt, the structure may show the parent alone.

target: T1, intracellular domain of human Tie2 (GST fusion protein) (Homo sapiens, UniProt Q02763); experiment: Tie2 kinase assay (Tie2-TR-FRET); format: biochemical; settings: ATP concentration 1 mM, in some cases means of several independent determinations
T1 construct: intracellular domain of human Tie2 (amino acids 776-1124); made in house; host or cells: Baculovirus-infected insect cells (Hi5)
In short: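 GST fusion of human Tie2 intracellular domain (aa 776-1124, Hi5-expressed), ~30 ng/ml, pre-incubated 15 min with compound, then 1 mM ATP and 1 μM biotinylated peptide, 60 min at 22 °C, pH 7. TR-FRET (Eu anti-phosphotyrosine/streptavidin-XL665, 665/620 nm ratio). […] 20 μM–0.073 nM in duplicate; IC50 by 4-parameter fit.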

T1 sequence (Q02763 776-1124): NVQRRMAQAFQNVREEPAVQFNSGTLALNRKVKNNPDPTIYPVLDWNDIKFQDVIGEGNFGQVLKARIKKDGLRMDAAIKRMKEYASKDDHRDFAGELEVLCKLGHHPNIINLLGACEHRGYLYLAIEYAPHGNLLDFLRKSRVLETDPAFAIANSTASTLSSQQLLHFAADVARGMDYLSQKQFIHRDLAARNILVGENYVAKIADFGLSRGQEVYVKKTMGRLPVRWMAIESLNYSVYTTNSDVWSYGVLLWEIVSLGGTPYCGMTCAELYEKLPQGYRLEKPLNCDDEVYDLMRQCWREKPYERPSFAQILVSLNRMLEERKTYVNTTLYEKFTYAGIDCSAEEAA

SMILES | IC50 [nM]
COc1ccc(S(F)(F)(F)(F)F)cc1C(=O)Nc1ccc(C)c(-n2ccn3nc(-c4cccnc4)cc23)c1 [Example 90, 2-Methoxy-N-{4-methyl-3-[6-(pyridin-3-yl)-1H-imidazo[1,2-b]pyrazol-1-yl]phenyl}-5-(pentafluoro-λ^6-sulphanyl)benzamide] | 91
Cc1ccc(NC(=O)c2cc(C(F)(F)F)cc(S(N)(=O)=O)c2)cc1-n1ccn2nc(-c3cccnc3)cc12 [Example 122, N-{4-Methyl-3-[6-(pyridin-3-yl)-1H-imidazo[1,2-b]pyrazol-1-yl]phenyl}-3-sulphamoyl-5-(trifluoromethyl)benzamide] | 3.9
Cc1cc(C(=O)Nc2ccc(C)c(-n3ccn4nc(-c5cccnc5)cc34)c2)cc(S(F)(F)(F)(F)F)c1 [Example 30, 3-Methyl-N-{4-methyl-3-[6-(pyridin-3-yl)-1H-imidazo[1,2-b]pyrazol-1-yl]phenyl}-5-(pentafluoro-λ^6-sulphanyl)benzamide] | 2
Cc1ccc(NC(=O)c2cc(-n3ccnc3C)cc(C(F)(F)F)c2)cc1-n1cc(C)n2nc(-c3cn[nH]c3)cc12 [Example 14, 3-(2-Methyl-1H-imidazol-1-yl)-N-{4-methyl-3-[3-methyl-6-(1H-pyrazol-4-yl)-1H-imidazo[1,2-b]-pyrazol-1-yl]phenyl}-5-(trifluoromethyl)benzamide] | 0.4
Cc1ccc(NC(=O)c2cc(Br)cc(S(F)(F)(F)(F)F)c2)cc1-n1ccn2nc(-c3cccnc3)cc12 [Example 89, 3-Bromo-N-{4-methyl-3-[6-(pyridin-3-yl)-1H-imidazo[1,2-b]pyrazol-1-yl]phenyl}-5-(pentafluoro-λ^6-sulphanyl)benzamide] | 2.3
Cc1ccc(NC(=O)c2cccc(N(C)C)c2)cc1-n1ccn2nc(-c3cccnc3)cc12 [Example 59, 3-(Dimethylamino)-N-{4-methyl-3-[6-(pyridin-3-yl)-1H-imidazo[1,2-b]pyrazol-1-yl]phenyl}-benzamide] | 600
Cc1ccc(NC(=O)c2cccc(S(F)(F)(F)(F)F)c2)cc1-n1ccn2nc(-c3cccnc3)cc12 [Example 15, N-{4-Methyl-3-[6-(pyridin-3-yl)-1H-imidazo[1,2-b]pyrazol-1-yl]phenyl}-3-(pentafluoro-λ^6-sulphanyl)benzamide] | 24
Cc1cc(C)c(-n2ccn3nc(-c4cccnc4)cc23)cc1NC(=O)c1cc(C#N)cc(S(F)(F)(F)(F)F)c1 [Example 147, 3-Cyano-N-{2,4-dimethyl-5-[6-(pyridin-3-yl)-1H-imidazo[1,2-b]pyrazol-1-yl]phenyl}-5-(pentafluoro-λ^6-sulphanyl)benzamide dihydrochloride] | 0.2
Cc1ccc(NC(=O)c2cccc(S(F)(F)(F)(F)F)c2)cc1-n1ccn2nc(-c3cncnc3)cc12 [Example 163, N-{4-Methyl-3-[6-(pyrimidin-5-yl)-1H-imidazo[1,2-b]pyrazol-1-yl]phenyl}-3-(pentafluoro-λ^6-sulphanyl)benzamide] | 8.9
Cc1cc(C)c(-n2ccn3nc(-c4cccnc4)cc23)cc1NC(=O)c1cccc(OCC(F)(F)F)c1 [Example 130, N-{2,4-Dimethyl-5-[6-(pyridin-3-yl)-1H-imidazo[1,2-b]pyrazol-1-yl]phenyl}-3-(2,2,2-trifluoroethoxy)benzamide] | 24
Cc1cc(C)c(-n2ccn3nc(-c4cccnc4)cc23)cc1NC(=O)c1cccc(OC(C)(C)C)c1 [Example 134, 3-tert-Butoxy-N-{2,4-dimethyl-5-[6-(pyridin-3-yl)-1H-imidazo[1,2-b]pyrazol-1-yl]phenyl}-benzamide] | 55
Cc1c(F)cc(NC(=O)c2cccc(S(F)(F)(F)(F)F)c2)cc1-n1ccn2nc(-c3cccnc3)cc12 [Example 103, N-{3-Fluoro-4-methyl-5-[6-(pyridin-3-yl)-1H-imidazo[1,2-b]pyrazol-1-yl]phenyl}-3-(pentafluoro-λ^6-sulphanyl)benzamide] | 130
Cc1cc(C)c(-n2ccn3nc(-c4cccnc4)cc23)cc1NC(=O)c1cccc(SC(F)(F)F)c1 [Example 126, N-{2,4-Dimethyl-5-[6-(pyridin-3-yl)-1H-imidazo[1,2-b]pyrazol-1-yl]phenyl}-3-[(trifluoromethyl)-sulphanyl]benzamide] | 1.2
Cc1cc(C)cc(C(=O)Nc2ccc(C)c(-n3ccn4nc(-c5cccnc5)cc34)c2)c1 [Example 52, 3,5-Dimethyl-N-{4-methyl-3-[6-(pyridin-3-yl)-1H-imidazo[1,2-b]pyrazol-1-yl]phenyl}benzamide] | 230
Cc1ccc(NC(=O)c2cccc(OC(C)C)c2)cc1-n1ccn2nc(-c3cccnc3)cc12 [Example 60, N-{4-Methyl-3-[6-(pyridin-3-yl)-1H-imidazo[1,2-b]pyrazol-1-yl]phenyl}-3-(propan-2-yloxy)-benzamide] | 125
Cc1ccc(NC(=O)c2cc(C#N)cc(C(C)(C)C)c2)cc1-n1ccn2nc(-c3cccnc3)cc12 [Example 50, 3-tert-Butyl-5-cyano-N-{4-methyl-3-[6-(pyridin-3-yl)-1H-imidazo[1,2-b]pyrazol-1-yl]phenyl}-benzamide] | 1.2

SMILES | IC50 [nM]
Cc1ccc(NC(=O)c2ccnc(N3CCCCC3)c2)cc1-n1ccn2nc(-c3cccnc3)cc12 [Example 68, N-{4-Methyl-3-[6-(pyridin-3-yl)-1H-imidazo[1,2-b]pyrazol-1-yl]phenyl}-2-(piperidin-1-yl)-pyridine-4-carboxamide] | 71
Cc1ccc(NC(=O)c2cc(CN3CCCC3)cc(S(F)(F)(F)(F)F)c2)cc1-n1ccn2nc(-c3cccnc3)cc12 [Example 33, N-{4-Methyl-3-[6-(pyridin-3-yl)-1H-imidazo[1,2-b]pyrazol-1-yl]phenyl}-3-(pentafluoro-λ^6-sulphanyl)-5-(pyrrolidin-1-ylmethyl)benzamide] | 2.5
Cc1cc(C)c(-n2ccn3nc(-c4cccnn4)cc23)cc1NC(=O)c1cc(Br)cc(S(F)(F)(F)(F)F)c1 [Example 170, 3-Bromo-N-{2,4-dimethyl-5-[6-(pyridazin-3-yl)-1H-imidazo[1,2-b]pyrazol-1-yl]phenyl}-5-(pentafluoro-λ^6-sulphanyl)benzamide] | 1.2
Cc1ccc(NC(=O)c2cc(CN3CCNCC3)cc(S(F)(F)(F)(F)F)c2)cc1-n1ccn2nc(-c3cccnc3)cc12 [Example 35, N-{4-Methyl-3-[6-(pyridin-3-yl)-1H-imidazo[1,2-b]pyrazol-1-yl]phenyl}-3-(pentafluoro-λ^6-sulphanyl)-5-(piperazin-1-ylmethyl)benzamide] | 0.5
Cc1ccc(NC(=O)c2cc(C#N)cc(S(F)(F)(F)(F)F)c2)cc1-n1ccn2nc(-c3cccnc3)c(F)c12 [Example 159, 3-Cyano-N-{3-[7-fluoro-6-(pyridin-3-yl)-1H-imidazo[1,2-b]pyrazol-1-yl]-4-methylphenyl}-5-(pentafluoro-λ^6-sulphanyl)benzamide] | 10
O=C(Nc1cccc(-n2ccn3nc(-c4cccnc4)cc23)c1O)c1cccc(S(F)(F)(F)(F)F)c1 [Example 82, N-{2-Hydroxy-3-[6-(pyridin-3-yl)-1H-imidazo[1,2-b]pyrazol-1-yl]phenyl}-3-(pentafluoro-λ^6-sulphanyl)benzamide] | 250
Cc1ccc(NC(=O)c2cccc(-c3cccc(C#N)c3)c2)cc1-n1ccn2nc(-c3cccnc3)cc12 [Example 54, 3′-Cyano-N-{4-methyl-3-[6-(pyridin-3-yl)-1H-imidazo[1,2-b]pyrazol-1-yl]phenyl}biphenyl-3-carboxamide] | 670
Cc1ccc(NC(=O)c2cc(OC3CCNC3)cc(S(F)(F)(F)(F)F)c2)cc1-n1ccn2nc(-c3cccnc3)cc12 (stereo not shown) [Example 25, N-{4-Methyl-3-[6-(pyridin-3-yl)-1H-imidazo[1,2-b]pyrazol-1-yl]phenyl}-3-(pentafluoro-λ^6-sulphanyl)-5-(pyrrolidin-3-yloxy)benzamide] | 1.9
Cc1ccc(NC(=O)c2cccc(C(C)(C)C)c2)cc1-n1ccn2nc(-c3cccnc3)cc12 [Example 123, 3-tert-Butyl-N-{4-methyl-3-[6-(pyridin-3-yl)-1H-imidazo[1,2-b]pyrazol-1-yl]phenyl}benzamide] | 56
Cc1ccc(NC(=O)c2cc(Br)cc(S(F)(F)(F)(F)F)c2)c(C)c1-n1ccn2nc(-c3cccnc3)cc12 [Example 120, 3-Bromo-N-{2,4-dimethyl-3-[6-(pyridin-3-yl)-1H-imidazo[1,2-b]pyrazol-1-yl]phenyl}-5-(pentafluoro-λ^6-sulphanyl)benzamide] | 37
COc1ccc(NC(=O)c2cccc(S(F)(F)(F)(F)F)c2)cc1-n1ccn2nc(-c3cccnc3)cc12 [Example 72, N-{4-Methoxy-3-[6-(pyridin-3-yl)-1H-imidazo[1,2-b]pyrazol-1-yl]phenyl}-3-(pentafluoro-λ^6-sulphanyl)benzamide] | 350
Cc1ccc(NC(=O)c2ccc(F)c(C(F)(F)F)c2)cc1-n1ccn2nc(-c3cccnc3)cc12 [Example 45, 4-Fluoro-N-{4-methyl-3-[6-(pyridin-3-yl)-1H-imidazo[1,2-b]pyrazol-1-yl]phenyl}-3-(trifluoromethyl)benzamide] | 740
Cc1ccc(-n2ccn3nc(-c4cccnc4)cc23)cc1NC(=O)c1cc(C#N)cc(C(C)(C)C)c1 [Example 79] | 26
Cc1ccc(NC(=O)c2cc(N3CCNCC3)cc(S(F)(F)(F)(F)F)c2)cc1-n1ccn2nc(-c3cccnc3)cc12 [Example 17, N-{4-Methyl-3-[6-(pyridin-3-yl)-1H-imidazo[1,2-b]pyrazol-1-yl]phenyl}-3-(pentafluoro-λ^6-sulphanyl)-5-(piperazin-1-yl)benzamide] | 0.3
Cc1ccc(NC(=O)c2cccc(S(F)(F)(F)(F)F)c2)cc1-n1ccn2nc(-c3cnccn3)cc12 [Example 84, N-{4-Methyl-3-[6-(pyrazin-2-yl)-1H-imidazo[1,2-b]pyrazol-1-yl]phenyl}-3-(pentafluoro-λ^6-sulphanyl)benzamide] | 220
